We go through 23 molecules from patent publication US20250312352A1, “GLP-1R MODULATING COMPOUNDS” (Gilead Sciences, Inc., priority 2021, published 2025).

The target of the assay is T1, GLP-1R (Homo sapiens, UniProt P43220).
T1 construct: host or cells: CHO cells
T1 sequence (P43220 24-463): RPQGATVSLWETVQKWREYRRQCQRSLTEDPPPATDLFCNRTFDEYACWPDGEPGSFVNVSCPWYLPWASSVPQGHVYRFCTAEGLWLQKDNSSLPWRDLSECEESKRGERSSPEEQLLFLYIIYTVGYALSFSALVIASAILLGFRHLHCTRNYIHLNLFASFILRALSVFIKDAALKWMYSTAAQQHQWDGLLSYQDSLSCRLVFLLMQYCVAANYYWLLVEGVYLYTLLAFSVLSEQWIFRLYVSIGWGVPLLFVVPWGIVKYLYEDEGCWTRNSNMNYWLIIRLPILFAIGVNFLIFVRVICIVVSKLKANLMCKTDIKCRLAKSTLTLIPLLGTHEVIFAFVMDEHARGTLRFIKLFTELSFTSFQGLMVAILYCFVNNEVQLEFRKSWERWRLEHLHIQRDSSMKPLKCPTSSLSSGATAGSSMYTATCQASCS
In words: GLP-1R activation cAMP assay (Assay 1 or Assay 2). It is filed as cell-based. The conditions noted are these: cAMP increase in CHO cells stably expressing GLP-1R; compounds run on one of the two cAMP assays. The gist of the method:
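EC50 values come from a sigmoidal fit of HTRF-detected cAMP rise versus log agonist concentration. GLP-1R-expressing CHO cells, equilibrated 1 h at 37 °C in HBSS with HEPES and BSA, received a 10-point compound dose series for 30 min before detection.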
Take `NC(=O)c1ccc(COc2nccc(-c3cc(F)c(Cc4nc5ccc(C(=O)O)cc5n4C[C@@H]4CCO4)cc3F)n2)cn1` [Example 222, (S)-2-(4-(2-((6-carbamoylpyridin-3-yl)methoxy)pyrimidin-4-yl)-2,5-difluorobenzyl)-1-(oxetan-2-ylmethyl)-1H-benzo[d]imidazole-6-carboxylic acid]: the EC50 (commonly the concentration that produces a half-maximal response) was determined as 3.59 nM. That is a single-digit nanomolar value. On to `Cc1cc(Cc2nc3c(F)cc(C(=O)O)cc3n2[C@@H]2COCC2(C)C)c(Cl)cc1-c1ccc(F)c(OCc2ncc(C(C)(F)F)s2)n1` [Example 426, (S)-2-(2-chloro-4-(6-((5-(1,1-difluoroethyl)thiazol-2-yl)methoxy)-5-fluoropyridin-2-yl)-5-methylbenzyl)-1-(4,4-dimethyltetrahydrofuran-3-yl)-4-fluoro-1H-benzo[d]imidazole-6-carboxylic acid], for which the 50% effective concentration (EC50) is 0.931 nM. In the case of `O=C(O)c1ccc2nc(Cc3cc(F)c(-c4cccc(OCc5ncc(C#CC6CCOC6)s5)n4)cc3F)n(C[C@@H]3CCO3)c2c1` (stereo partly drawn) [Example 322, 2-(2,5-difluoro-4-(6-((5-((tetrahydrofuran-3-yl)ethynyl)thiazol-2-yl)methoxy)pyridin-2-yl)benzyl)-1-(((S)-oxetan-2-yl)methyl)-1H-benzo[d]imidazole-6-carboxylic acid] it was 0.349 nM. Molecule `O=C(O)c1ccc2nc(Cc3cc(F)c(-c4cccc(OCc5ccc(-n6cnc(C7CC7)n6)nc5)n4)cc3F)n(C[C@@H]3CCO3)c2c1` [Example 211, 2-[[4-[6-[[6-(3-cyclopropyl-1,2,4-triazol-1-yl)-3-pyridyl]methoxy]-2-pyridyl]-2,5-difluoro-phenyl]methyl]-3-[[(2S)-oxetan-2-yl]methyl]benzimidazole-5-carboxylic acid] gave a concentration giving a half-maximal response (EC50) of 0.51 nM. With `Cn1cc(C#Cc2ccc(COc3cccc(-c4cc(F)c(Cc5nc6c(F)cc(C(=O)O)cc6n5C[C@@H]5CCO5)cc4F)n3)c(F)c2)cn1` [Example 151, (S)-2-(2,5-difluoro-4-(6-((2-fluoro-4-((1-methyl-1H-pyrazol-4-yl)ethynyl)benzyl)oxy)pyridin-2-yl)benzyl)-4-fluoro-1-(oxetan-2-ylmethyl)-1H-benzo[d]imidazole-6-carboxylic acid], the 50% effective concentration (EC50) amounted to 0.1 nM. `Cn1cc(C#Cc2ccc(COc3nc(-c4cc(F)c(Cc5nc6c(F)cc(C(=O)O)cc6n5C[C@@H]5CCO5)cc4F)ccc3F)cn2)cn1` [Example 295, (S)-2-(2,5-difluoro-4-(5-fluoro-6-((6-((1-methyl-1H-pyrazol-4-yl)ethynyl)pyridin-3-yl)methoxy)pyridin-2-yl)benzyl)-4-fluoro-1-(oxetan-2-ylmethyl)-1H-benzo[d]imidazole-6-carboxylic acid]: a half-maximal effect (EC50) was put at 0.202 nM. As for `Cn1ccc(-c2cnc(COc3cccc(-c4cc(F)c(Cc5nc6ccc(C(=O)O)cc6n5C[C@@H]5CCO5)cc4F)n3)s2)n1` [Example 103, (S)-2-(2,5-difluoro-4-(6-((5-(1-methyl-1H-pyrazol-3-yl)thiazol-2-yl)methoxy)pyridin-2-yl)benzyl)-1-(oxetan-2-ylmethyl)-1H-benzo[d]imidazole-6-carboxylic acid], the EC50 was found to be 0.23 nM. The molecule `O=C(O)c1ccc2nc(Cc3cc(F)c(-c4cccc(OCc5cc(C(F)(F)F)on5)n4)cc3F)n(C[C@@H]3CCO3)c2c1` [Example 24, (S)-2-(2,5-difluoro-4-(6-((5-(trifluoromethyl)isoxazol-3-yl)methoxy)pyridin-2-yl)benzyl)-1-(oxetan-2-ylmethyl)-1H-benzo[d]imidazole-6-carboxylic acid] registered an EC50 of 1.54 nM. This EC50 is about 6.7-fold higher than that of the molecule before. Under `CCOc1nnc(COc2nc(-c3cc(F)c(Cc4nc5ccc(C(=O)O)cc5n4[C@@H]4COCC4(C)C)cc3C)ccc2F)s1` [Example 262, (S)-1-(4,4-dimethyltetrahydrofuran-3-yl)-2-(4-(6-((5-ethoxy-1,3,4-thiadiazol-2-yl)methoxy)-5-fluoropyridin-2-yl)-2-fluoro-5-methylbenzyl)-1H-benzo[d]imidazole-6-carboxylic acid] stands 0.134 nM; under `COCc1nnc(COc2cccc(-c3cc(F)c(Cc4nc5ccc(C(=O)O)cc5n4C[C@@H]4CCO4)cc3F)n2)s1` [Example 298, (S)-2-(2,5-difluoro-4-(6-((5-(methoxymethyl)-1,3,4-thiadiazol-2-yl)methoxy)pyridin-2-yl)benzyl)-1-(oxetan-2-ylmethyl)-1H-benzo[d]imidazole-6-carboxylic acid], 0.466 nM. In the case of `Cn1cc(C#Cc2cc(Cl)c(COc3cccc(-c4cc(F)c(Cc5nc6ccc(C(=O)O)cc6n5C[C@@H]5CCO5)cc4F)n3)cn2)cn1` [Example 300, (S)-2-(4-(6-((4-chloro-6-((1-methyl-1H-pyrazol-4-yl)ethynyl)pyridin-3-yl)methoxy)pyridin-2-yl)-2,5-difluorobenzyl)-1-(oxetan-2-ylmethyl)-1H-benzo[d]imidazole-6-carboxylic acid] it was 0.823 nM; in that of `Cn1ncc(C#Cc2ccc(COc3cccc(-c4cc(F)c(Cc5nc6ccc(C(=O)O)cc6n5C[C@@H]5CCO5)cc4F)n3)c(F)c2)c1C(N)=O` [Example 359, (S)-2-(4-(6-((4-((5-carbamoyl-1-methyl-1H-pyrazol-4-yl)ethynyl)-2-fluorobenzyl)oxy)pyridin-2-yl)-2,5-difluorobenzyl)-1-(oxetan-2-ylmethyl)-1H-benzo[d]imidazole-6-carboxylic acid], 0.051 nM; in that of `Cn1cc(-c2cc(COc3cccc(-c4cc(F)c(Cc5nc6ccc(C(=O)O)cc6n5C[C@@H]5CCO5)cc4F)n3)nn2C)cn1` [Example 109, (S)-2-(4-(6-((1′,2-dimethyl-1′H,2H-[3,4′-bipyrazol]-5-yl)methoxy)pyridin-2-yl)-2,5-difluorobenzyl)-1-(oxetan-2-ylmethyl)-1H-benzo[d]imidazole-6-carboxylic acid], 0.62 nM. As to `O=C(O)c1ccc2nc(Cc3cc(F)c(-c4cccc(OCc5nnc(C6CC(F)(F)C6)s5)n4)cc3F)n(C[C@@H]3CCO3)c2c1` [Example 385, (S)-2-(4-(6-((5-(3,3-difluorocyclobutyl)-1,3,4-thiadiazol-2-yl)methoxy)pyridin-2-yl)-2,5-difluorobenzyl)-1-(oxetan-2-ylmethyl)-1H-benzo[d]imidazole-6-carboxylic acid], the EC50 was 0.11 nM. `O=C(O)c1ccc2nc(Cc3cc(F)c(-c4cccc(OCc5ccc(C#Cc6cccnc6)cc5F)n4)cc3F)n(C[C@@H]3CCO3)c2c1` [Example 139, (S)-2-(2,5-difluoro-4-(6-((2-fluoro-4-(pyridin-3-ylethynyl)benzyl)oxy)pyridin-2-yl)benzyl)-1-(oxetan-2-ylmethyl)-1H-benzo[d]imidazole-6-carboxylic acid]: the midpoint of the response, the EC50, lay at 0.28 nM. On to `O=C(O)c1ccc2nc(Cc3cc(F)c(-c4cccc(OCc5cc6n(n5)CC(F)(F)C6)n4)cc3F)n(C[C@@H]3CCO3)c2c1` [Example 74, (S)-2-(4-(6-((5,5-difluoro-5,6-dihydro-4H-pyrrolo[1,2-b]pyrazol-2-yl)methoxy)pyridin-2-yl)-2,5-difluorobenzyl)-1-(oxetan-2-ylmethyl)-1H-benzo[d]imidazole-6-carboxylic acid], for which a half-maximal response (EC50) required 0.25 nM. This EC50 and that of the molecule before are within 1.5-fold of each other.

Consider `Cn1ccnc1C#Cc1ccc(COc2cccc(-c3cc(F)c(Cc4nc5ccc(C(=O)O)cc5n4C[C@@H]4CCO4)cc3F)n2)c(F)c1` [Example 148, (S)-2-(2,5-difluoro-4-(6-((2-fluoro-4-((1-methyl-1H-imidazol-2-yl)ethynyl)benzyl)oxy)pyridin-2-yl)benzyl)-1-(oxetan-2-ylmethyl)-1H-benzo[d]imidazole-6-carboxylic acid], for which the midpoint of the response, the EC50, lay at 0.51 nM. This EC50 lies about 2-fold higher than the previous one.

Take `O=C(O)c1ccc2nc(Cc3cc(F)c(-c4cccc(OCc5ccn(C6CC6)n5)n4)cc3F)n(C[C@@H]3CCO3)c2c1` [Example 6, (S)-2-(4-(6-((1-cyclopropyl-1H-pyrazol-3-yl)methoxy)pyridin-2-yl)-2,5-difluorobenzyl)-1-(oxetan-2-ylmethyl)-1H-benzo[d]imidazole-6-carboxylic acid]: a half-maximal response (EC50) required 3.09 nM.

Regarding `O=C(O)c1ccc2nc(Cc3cc(F)c(-c4cccc(OCc5cnco5)n4)cc3F)n(C[C@@H]3CCO3)c2c1` [Example 169, (S)-2-(2,5-difluoro-4-(6-(oxazol-5-ylmethoxy)pyridin-2-yl)benzyl)-1-(oxetan-2-ylmethyl)-1H-benzo[d]imidazole-6-carboxylic acid], a half-maximal response (EC50) required 11.8 nM.

In turn, `CNC(=O)c1cc(Cl)c(COc2cccc(-c3cc(Cl)c(Cc4nc5c(F)cc(C(=O)O)cc5n4CCOC)cc3F)n2)cn1` [Example 386, 2-(2-chloro-4-(6-((4-chloro-6-(methylcarbamoyl)pyridin-3-yl)methoxy)pyridin-2-yl)-5-fluorobenzyl)-4-fluoro-1-(2-methoxyethyl)-1H-benzo[d]imidazole-6-carboxylic acid] showed an EC50 of 0.121 nM.

On to `COCCn1c(Cc2cc(F)c(-c3cccc(OCc4cn(-c5ccccc5)cn4)n3)cc2F)nc2ccc(C(=O)O)cc21` [Example 122, 2-(2,5-difluoro-4-(6-((1-phenyl-1H-imidazol-4-yl)methoxy)pyridin-2-yl)benzyl)-1-(2-methoxyethyl)-1H-benzo[d]imidazole-6-carboxylic acid], for which the response was half-maximal at 695 nM (EC50). Molecule `Cc1nnc(COc2cccc(-c3cc(F)c(Cc4nc5ccc(C(=O)O)cc5n4[C@@H]4COCC4(C)C)c(F)c3F)n2)s1` (single isomer, unassigned) [Example 281A] displayed a concentration for a half-maximal effect (EC50) of 0.27 nM. As for `NC(=O)c1cc(F)c(COc2nc(-c3cc(F)c(Cc4nc5c(F)cc(C(=O)O)cc5n4C[C@@H]4CCO4)cc3F)ccc2F)cn1` [Example 208, (S)-2-(4-(6-((6-carbamoyl-4-fluoropyridin-3-yl)methoxy)-5-fluoropyridin-2-yl)-2,5-difluorobenzyl)-4-fluoro-1-(oxetan-2-ylmethyl)-1H-benzo[d]imidazole-6-carboxylic acid], the EC50 was determined as 0.02 nM.
